Experimental data as given in article PMC11676667, “Pharmacokinetics of Oral Cannabinoid Δ8-Tetrahydrocannabivarin and Its Main Metabolites in Healthy Participants” (Pharmaceuticals, 2024).

Experiment: Plasma pharmacokinetics after single oral dose of Δ8-THCV in MCT oil (LC-MS/MS, non-compartmental analysis)
Assay type: in vivo, human
Parameters: Clast (last quantifiable concentration): unit not given here
Details: for Clast (last quantifiable concentration) / tlast (time to last quantifiable concentration) / concentration at 0.5 h / concentration at 1 h / concentration at 2 h / concentration at 4 h / concentration at 6 h / concentration at 8 h: plasma; for plasma concentration: Predose; for concentration at 0.5 h / concentration at 1 h / concentration at 2 h / concentration at 4 h / concentration at 6 h / concentration at 8 h: human, oral
Procedure: The study was a two-phase, dose-ranging, placebo-controlled trial in 21 healthy participants to assess the safety, tolerability, PK, and PD of an oral formulation of Δ8-THCV. A detailed description of the study was published elsewhere. The study product was a medium-chain triglyceride (MCT) oil oral formulation of Δ8-THCV at a concentration of 50 mg/mL. […] MCT oil was used as placebo.
Twenty-one participants were enrolled in the clinical study and plasma samples from 15 participants were sent to our laboratory for pharmacokinetic evaluation. Of these, 3 participants were enrolled in Phase 1, an unblinded, placebo-controlled, single ascending dose design and 12 were enrolled in Phase 2, a double-blind, randomized, placebo-controlled, within-participant crossover design. At each study session, participants received one of the following oral doses: placebo, 12.5 mg, 25 mg, 50 mg, 100 mg, and 200 mg of the aforementioned Δ8-THCV formulation in MCT. Study visits were separated by a washout period of a minimum of one week and maximum of 28 days. Participants entered the research facility the night before the session and received the study product in the morning after a standardized high-fat, high-calorie breakfast. PK blood samples included in this analysis were collected prior to dosing and 0.5, 1, 2, 4, 6, and 8 h after dose. Immediately following collection into K2EDTA tubes, blood samples were placed on wet ice, centrifuged, and plasma was immediately frozen at −80 °C until shipment to the bioanalytical laboratory (iC42 Clinical Research and Development, University of Colorado, Aurora, CO, USA) on dry ice.
Plasma samples were analyzed using a validated high-performance liquid chromatography–tandem mass spectrometry (LC-MS/MS) assay. The assay included Δ8-THCV and its main metabolites 11-OH-Δ8-THCV and Δ8-THCV-COOH, Δ9-THCV and its main metabolite Δ9-THCV-COOH, and Δ9-THC and Δ8-THC as well as their main metabolites (Figure 3). The complete list of analyzed compounds and a summary of the key performance parameters of the assay are presented in Appendix A and Table A1 and Table A2. […] For the PK analysis, concentrations below the lower limit of quantification were set to 0 ng/mL. PK parameters were calculated using non-compartmental analysis (Phoenix WinNonlin version 8.4., Certara, Princeton, NJ, USA). Statistical analysis was carried out using GraphPad Prism (version 10, Boston, MA, USA).

[1] = 12.5 mg single oral Δ8-THCV in MCT oil, Mean (±SD)
[2] = 12.5 mg single oral Δ8-THCV in MCT oil, Median (Range)
[3] = 25 mg single oral Δ8-THCV in MCT oil, Mean (±SD)
[4] = 25 mg single oral Δ8-THCV in MCT oil, Median (Range)
[5] = 50 mg single oral Δ8-THCV in MCT oil, Mean (±SD)
[6] = 50 mg single oral Δ8-THCV in MCT oil, Median (Range)
[7] = 100 mg single oral Δ8-THCV in MCT oil, Mean (±SD)
[8] = 100 mg single oral Δ8-THCV in MCT oil, Median (Range)
[9] = 200 mg single oral Δ8-THCV in MCT oil, Mean (±SD)
[10] = 200 mg single oral Δ8-THCV in MCT oil, Median (Range)
[11] = 12.5 mg, 12.5 mg Δ8-THCV dose, Mean (SD, %CV)
[12] = 12.5 mg, 12.5 mg Δ8-THCV dose, Median (IQ Range)
[13] = 25 mg, 25 mg Δ8-THCV dose, Mean (SD, %CV)
[14] = 25 mg, 25 mg Δ8-THCV dose, Median (IQ Range)
[15] = 50 mg, 50 mg Δ8-THCV dose, Mean (SD, %CV)
[16] = 50 mg, 50 mg Δ8-THCV dose, Median (IQ Range)

In the case of `CCCc1cc(O)c2c(c1)OC(C)(C)[C@@H]1CC=C(C(=O)O)C[C@@H]21` [Δ8-THCV-COOH, 11-nor-9-carboxy-Δ8-THCV], the “Clast (last quantifiable concentration)” value [1] is reported as 46.8 (±23), the “tlast (time to last quantifiable concentration)” value (“tlast” below) [1] is reported as 8 (±0) and the “Clast (last quantifiable concentration)” value [2] is reported as 38.2 (20.1–102). The “tlast” value [2] was 8 (8–8), the “Clast (last quantifiable concentration)” value [3] was 71.6 (±33.8) and the “tlast” value [3] was 8 (±0). For the same compound, the “Clast (last quantifiable concentration)” value [4] was 78.3 (25.5–146), the “tlast” value [4] was 8 (8–8) and the “Clast (last quantifiable concentration)” value [5] was 166 (±60.3). For the same compound, the “tlast” value [5] was 8 (±0), the “Clast (last quantifiable concentration)” value [6] was 148 (78.9–264) and the “tlast” value [6] was 8 (8–8). For the same compound, the “Clast (last quantifiable concentration)” value [7] was 319 (±118), the “tlast” value [7] was 8 (±0) and the “Clast (last quantifiable concentration)” value [8] was 304 (153–590). The “tlast” value [8] was 8 (8–8), the “Clast (last quantifiable concentration)” value [9] was 917 (±582) and the “tlast” value [9] was 8 (±0). For the same compound, the “Clast (last quantifiable concentration)” value [10] was 855 (364–2402), the “tlast” value [10] was 8 (8–8) and the plasma concentration (12.5 mg Δ8-THCV dose, Mean (SD, %CV)) was 0.2 (±0.4, 267) ng/mL. The plasma concentration (12.5 mg Δ8-THCV dose, Median (IQ Range)) was 0 (0–0) ng/mL, the plasma concentration (25 mg Δ8-THCV dose, Mean (SD, %CV)) was 0.3 (±1, 374) ng/mL and the plasma concentration (25 mg Δ8-THCV dose, Median (IQ Range)) was 0 (0–0) ng/mL. For the same compound, the plasma concentration (50 mg Δ8-THCV dose, Mean (SD, %CV)) was 0.8 (±1.6, 187) ng/mL, the plasma concentration (50 mg Δ8-THCV dose, Median (IQ Range)) was 0 (0–0.9) ng/mL and the plasma concentration (100 mg Δ8-THCV dose, Mean (SD, %CV)) was 0.5 (±0.8, 166) ng/mL. For the same compound, the plasma concentration (100 mg Δ8-THCV dose, Median (IQ Range)) was 0 (0–1) ng/mL, the plasma concentration (200 mg Δ8-THCV dose, Mean (SD, %CV)) was 0.1 (±0.3, 387) ng/mL and the plasma concentration (200 mg Δ8-THCV dose, Median (IQ Range)) was 0 (0–0) ng/mL. The “median AUClast ratio Δ8-THCV-COOH/Δ8-THCV/11-OH-Δ8-THCV” value (after the 200 mg dose, Δ8-THCV = 1) was 36, the concentration at 0.5 h [11] was 0.4 ng/mL and the concentration at 0.5 h [12] was 0 ng/mL. For the same compound, the concentration at 1 h [11] was 15 ng/mL, the concentration at 1 h [12] was 3 ng/mL and the concentration at 2 h [11] was 30.1 ng/mL. The concentration at 2 h [12] was 15.5 ng/mL, the concentration at 4 h [11] was 84.6 ng/mL and the concentration at 4 h [12] was 73.1 ng/mL. For the same compound, the concentration at 6 h [11] was 62.2 ng/mL, the concentration at 6 h [12] was 53.3 ng/mL and the concentration at 8 h [11] was 46.8 ng/mL. The concentration at 8 h [12] was 38.2 ng/mL, the concentration at 0.5 h [13] was 2.7 ng/mL and the concentration at 0.5 h [14] was 0 ng/mL. It also gave a concentration at 1 h [13] of 28.5 ng/mL, a concentration at 1 h [14] of 7.1 ng/mL and a concentration at 2 h [13] of 54.6 ng/mL. It also gave a concentration at 2 h [14] of 55.6 ng/mL, a concentration at 4 h [13] of 136 ng/mL and a concentration at 4 h [14] of 108 ng/mL. The concentration at 6 h [13] was 96.3 ng/mL, the concentration at 6 h [14] was 82.6 ng/mL and the concentration at 8 h [13] was 71.6 ng/mL. The concentration at 8 h [14] was 78.3 ng/mL, the concentration at 0.5 h [15] was 4.7 ng/mL and the concentration at 0.5 h [16] was 1.3 ng/mL. The concentration at 1 h [15] was 27.3 ng/mL, the concentration at 1 h [16] was 4.8 ng/mL and the concentration at 2 h [15] was 84.1 ng/mL. The concentration at 2 h [16] was 26.5 ng/mL, the concentration at 4 h [15] was 214 ng/mL and the concentration at 4 h [16] was 177 ng/mL. It also gave a concentration at 6 h [15] of 233 ng/mL, a concentration at 6 h [16] of 200 ng/mL and a concentration at 8 h [15] of 166 ng/mL. The concentration at 8 h [16] was 148 ng/mL and the concentration at 0.5 h (100 mg, 100 mg Δ8-THCV dose, Mean (SD, %CV)) was 13 ng/mL.
